In paper PMC4661110 (Bioorganic & medicinal chemistry, 2015):
Converted amounts (≈) assume the structure as drawn.

Tests used:
S. aureus Mu50 [1] = assay: Bacteriostatic effect; type: cell-based; details: for MIC fold higher than that of SCA-50: S. aureus Mu50
[2] = test system: S. aureus NorA and MepA efflux pump strains; type: cell-based; details: confirmed by MIC, Table 3
[3] = test system: secretion of α-hemolysin, enterotoxin B, and TSST-1 by S. aureus Mu50; type: cell-based
S. aureus ATCC 6538 = assay: Effects of light on bactericidal result; type: cell-based; details: 40 µM, 2 hr, dark vs light
SaSecA1 [4] = biological target: T1, SaSecA1 (Staphylococcus aureus, UniProt O06446); type: biochemical; details: liposomes-oocytes, different concentrations of ATP
T1 sequence (O06446 1-843): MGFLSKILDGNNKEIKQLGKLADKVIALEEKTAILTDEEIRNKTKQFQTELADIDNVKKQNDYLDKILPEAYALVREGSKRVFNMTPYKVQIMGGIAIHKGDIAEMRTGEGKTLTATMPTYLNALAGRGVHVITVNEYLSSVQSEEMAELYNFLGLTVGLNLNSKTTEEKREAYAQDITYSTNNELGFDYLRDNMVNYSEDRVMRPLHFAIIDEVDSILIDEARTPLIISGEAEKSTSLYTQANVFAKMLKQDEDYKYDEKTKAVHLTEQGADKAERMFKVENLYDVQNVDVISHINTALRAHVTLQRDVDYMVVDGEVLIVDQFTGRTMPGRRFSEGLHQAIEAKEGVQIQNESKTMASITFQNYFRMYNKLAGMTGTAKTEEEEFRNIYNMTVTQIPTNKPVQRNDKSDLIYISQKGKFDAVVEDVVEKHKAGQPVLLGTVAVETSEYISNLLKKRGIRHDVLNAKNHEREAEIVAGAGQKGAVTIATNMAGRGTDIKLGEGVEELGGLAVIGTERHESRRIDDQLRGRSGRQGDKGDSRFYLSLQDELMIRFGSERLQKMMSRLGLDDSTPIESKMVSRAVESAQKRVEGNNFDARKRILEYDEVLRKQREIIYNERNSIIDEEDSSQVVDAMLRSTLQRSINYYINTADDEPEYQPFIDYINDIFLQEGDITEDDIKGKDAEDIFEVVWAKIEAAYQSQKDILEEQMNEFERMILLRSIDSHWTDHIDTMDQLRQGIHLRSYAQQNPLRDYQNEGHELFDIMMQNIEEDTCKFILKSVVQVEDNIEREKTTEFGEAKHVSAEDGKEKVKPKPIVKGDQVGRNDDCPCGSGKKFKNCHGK

S. aureus Mu50 [5] = type: cell-based; details: 10 µM, mid-log phase (OD600 ≈ 2.6), first 15 hr
SaSecA1 [6] = biological target: T1, SaSecA1; assay: Protein pull down assay from whole cell lysate; type: binding; details: 400 µM, S. aureus ATCC 6538 lysate, Streptavidin magnetic beads, Western blot

In the case of `CC1(C)S[C@@H]2[C@H](NC(=O)[C@H](N)c3ccccc3)C(=O)N2[C@H]1C(=O)O` [Ampicillin], the “MIC fold higher than that of SCA-50” value (S. aureus Mu50 [1]) is reported as 250 fold.
For `CC[C@H]1OC(=O)[C@H](C)[C@@H](O[C@H]2C[C@@](C)(OC)[C@@H](O)[C@H](C)O2)[C@H](C)[C@@H](O[C@@H]2O[C@H](C)C[C@H](N(C)C)[C@H]2O)[C@](C)(O)C[C@@H](C)C(=O)[C@H](C)[C@@H](O)[C@]1(C)O` [Erythromycin], the “MIC fold higher than that of SCA-50” value (S. aureus Mu50 [1]) was 250 fold.
For `NC[C@H]1O[C@H](O[C@H]2[C@H](O)[C@@H](O[C@H]3O[C@H](CO)[C@@H](O)[C@H](N)[C@H]3O)[C@H](N)C[C@@H]2N)[C@H](O)[C@@H](O)[C@@H]1O` [Kanamycin], the “MIC fold higher than that of SCA-50” value (S. aureus Mu50 [1]) was 250 fold.
`O=C([O-])c1c(Cl)c(Cl)c(Cl)c(Cl)c1-c1c2cc(I)c(=O)c(I)c-2oc2c(I)c([O-])c(I)cc12.[Na+].[Na+]` [RB, Rose Bengal] was tested, and the “substrate of NorA efflux pump” value [2] was “substrate of NorA”.
For `CO[C@H]1/C=C/O[C@@]2(C)Oc3c(C)c(O)c4c(O)c(c(/C=N/N5CCN(C)CC5)c(O)c4c3C2=O)NC(=O)/C(C)=C\C=C\[C@H](C)[C@H](O)[C@@H](C)[C@@H](O)[C@@H](C)[C@H](OC(C)=O)[C@@H]1C` [Rifampicin], the “MIC fold higher than that of SCA-50” value (S. aureus Mu50 [1]) was 250 fold.
In the case of `CCCCCCC1c2ccc(O)cc2Oc2cc(O)ccc21` [SCA-50], the “amount of TSST-1 in the supernatant” value [3] is reported as “significantly decreased”, the “amount of enterotoxin B in the supernatant” value [3] is reported as “significantly decreased” and the “amount of α-hemolysin in the supernatant” value [3] is reported as “significantly decreased”. The “amount of extracellular proteins in the supernatant” value ([3]; 10 µM) was “reduced the amount of many extracellular proteins”, the “effect of light on bactericidal effects” value (S. aureus ATCC 6538) was “not obviously affected by light” and the “manner of inhibition of translocation related ATPase activity of SaSecA1” value (SaSecA1 [4]) was “non-competitive”. For the same compound, the “OD600 reading compared with control” value (S. aureus Mu50 [5]) was “didn’t obviously change” and the MIC (S. aureus Mu50 [1]; Staphylococcus aureus, MU50, read-out: MIC against S. aureus Mu50) was 12.5 µM (≈ 3.73 µg/mL).
With `O=C(CCCC[C@@H]1SC[C@@H]2NC(=O)N[C@@H]21)NCCCCCCC1c2ccc(O)cc2Oc2cc(O)ccc21` [SCA-254] the “pull down of SaSecA1 from whole cell lysates” value (SaSecA1 [6]) was “could recognize and pull down SaSecA1”.
For `CN[C@@H](CC(C)C)C(=O)N[C@H]1C(=O)N[C@@H](CC(N)=O)C(=O)N[C@H]2C(=O)N[C@H]3C(=O)N[C@H](C(=O)N[C@@H](C(=O)O)c4cc(O)cc(O)c4-c4cc3ccc4O)[C@H](O)c3ccc(c(Cl)c3)Oc3cc2cc(c3O[C@H]2O[C@@H](CO)[C@H](O)[C@@H](O)[C@@H]2O[C@@H]2C[C@@](C)(N)[C@@H](O)[C@@H](C)O2)Oc2ccc(cc2Cl)[C@H]1O` [Vancomycin], the “MIC fold higher than that of SCA-50” value (S. aureus Mu50 [1]) was “two-fold higher”.
In the case of polymyxin B [Polymxin B], the “Bacteriostatic effect MIC, S. aureus Mu50 (comparison with antibiotics)” value (S. aureus Mu50 [1]; Table 2, n = 6) is reported as 31 µg/mL.
